Reference: ChEMBL document CHEMBL5465560, “Selectivity Literature for EUbOPEN Chemogenomic Library” (2024)

Legend:
[1] = target: Mitogen-activated protein kinase 1 (Homo sapiens, UniProt P28482); experiment: Selectivity interaction (KinomeScan (DiscoverX)) EUB0000229b MAPK1; details: at 10 µM
[2] = target: Interferon-induced, double-stranded RNA-activated protein kinase (Homo sapiens) (UniProt P19525); experiment: Selectivity interaction (KinomeScan (DiscoverX)) EUB0000229b EIF2AK2; details: at 10 µM
Sequence of Interferon-induced, double-stranded RNA-activated protein kinase (Homo sapiens) (P19525 whole entry): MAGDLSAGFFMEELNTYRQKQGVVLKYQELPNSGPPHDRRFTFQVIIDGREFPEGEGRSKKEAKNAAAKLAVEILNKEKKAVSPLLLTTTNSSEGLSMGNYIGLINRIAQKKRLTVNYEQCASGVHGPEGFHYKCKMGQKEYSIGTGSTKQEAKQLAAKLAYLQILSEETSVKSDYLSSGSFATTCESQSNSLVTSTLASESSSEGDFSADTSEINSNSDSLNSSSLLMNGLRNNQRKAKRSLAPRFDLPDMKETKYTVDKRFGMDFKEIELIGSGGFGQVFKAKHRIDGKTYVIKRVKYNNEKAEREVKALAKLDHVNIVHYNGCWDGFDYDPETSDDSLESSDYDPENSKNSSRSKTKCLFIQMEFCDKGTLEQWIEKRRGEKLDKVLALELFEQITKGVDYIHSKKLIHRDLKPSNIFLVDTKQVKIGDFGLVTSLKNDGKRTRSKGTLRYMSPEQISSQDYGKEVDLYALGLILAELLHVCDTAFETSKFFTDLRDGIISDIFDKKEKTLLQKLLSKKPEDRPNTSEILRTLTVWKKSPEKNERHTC

[3] = target: Ephrin type-A receptor 5 (Homo sapiens) (UniProt P54756); experiment: Selectivity interaction (KinomeScan (DiscoverX)) EUB0001049a EPHA5; details: at 1 µM
Sequence of Ephrin type-A receptor 5 (Homo sapiens) (P54756 whole entry): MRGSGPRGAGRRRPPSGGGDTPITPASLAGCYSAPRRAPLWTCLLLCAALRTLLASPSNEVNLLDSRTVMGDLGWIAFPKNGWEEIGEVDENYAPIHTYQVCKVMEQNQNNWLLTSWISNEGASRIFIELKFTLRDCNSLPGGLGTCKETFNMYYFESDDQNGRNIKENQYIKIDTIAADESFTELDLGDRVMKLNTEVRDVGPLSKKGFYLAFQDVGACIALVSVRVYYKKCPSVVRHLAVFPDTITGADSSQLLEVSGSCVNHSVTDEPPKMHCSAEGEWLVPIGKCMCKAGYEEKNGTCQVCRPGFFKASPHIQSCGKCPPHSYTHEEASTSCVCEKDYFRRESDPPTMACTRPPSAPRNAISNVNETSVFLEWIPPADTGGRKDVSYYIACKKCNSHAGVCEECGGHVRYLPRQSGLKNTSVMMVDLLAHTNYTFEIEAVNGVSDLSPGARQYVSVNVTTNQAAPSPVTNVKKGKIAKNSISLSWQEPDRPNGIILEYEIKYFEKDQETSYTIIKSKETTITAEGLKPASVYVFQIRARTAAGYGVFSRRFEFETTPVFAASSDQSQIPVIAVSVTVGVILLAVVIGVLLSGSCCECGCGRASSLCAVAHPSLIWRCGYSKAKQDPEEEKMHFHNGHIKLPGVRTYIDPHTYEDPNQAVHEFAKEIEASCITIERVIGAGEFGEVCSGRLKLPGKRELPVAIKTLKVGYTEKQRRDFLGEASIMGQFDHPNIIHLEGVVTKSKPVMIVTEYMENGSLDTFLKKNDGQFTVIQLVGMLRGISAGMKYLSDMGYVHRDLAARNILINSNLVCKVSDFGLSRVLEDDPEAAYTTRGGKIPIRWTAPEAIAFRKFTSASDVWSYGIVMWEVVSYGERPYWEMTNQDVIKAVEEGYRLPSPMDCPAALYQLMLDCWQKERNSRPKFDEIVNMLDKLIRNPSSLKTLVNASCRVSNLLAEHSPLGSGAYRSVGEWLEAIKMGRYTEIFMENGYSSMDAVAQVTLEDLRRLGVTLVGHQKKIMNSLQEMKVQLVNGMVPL

[4] = target: T1, Tyrosine-protein kinase ZAP-70 (Homo sapiens, UniProt P43403)
T1 sequence (P43403 whole entry): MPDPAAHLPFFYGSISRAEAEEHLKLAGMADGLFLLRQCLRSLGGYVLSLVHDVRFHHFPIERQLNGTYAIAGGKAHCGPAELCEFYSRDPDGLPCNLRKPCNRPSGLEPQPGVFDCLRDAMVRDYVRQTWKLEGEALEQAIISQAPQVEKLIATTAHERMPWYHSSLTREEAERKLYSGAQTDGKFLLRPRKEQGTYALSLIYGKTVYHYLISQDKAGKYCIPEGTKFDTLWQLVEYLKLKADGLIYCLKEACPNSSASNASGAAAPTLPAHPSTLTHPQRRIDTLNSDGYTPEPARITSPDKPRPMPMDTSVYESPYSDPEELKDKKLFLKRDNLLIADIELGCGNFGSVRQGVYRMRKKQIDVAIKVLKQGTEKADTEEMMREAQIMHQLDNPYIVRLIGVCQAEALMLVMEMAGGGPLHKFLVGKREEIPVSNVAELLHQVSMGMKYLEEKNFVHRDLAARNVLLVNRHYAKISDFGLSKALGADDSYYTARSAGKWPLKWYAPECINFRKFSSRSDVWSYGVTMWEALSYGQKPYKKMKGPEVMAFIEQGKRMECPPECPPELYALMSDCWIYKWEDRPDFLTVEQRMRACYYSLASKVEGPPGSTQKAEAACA

[5] = target: T2, Beta-adrenergic receptor kinase 1 (Homo sapiens) (UniProt P25098); experiment: Selectivity interaction (Kinase panel (Invitrogen)) EUB0000639a ADRBK1; details: at 200 nM
T2 sequence (whole entry): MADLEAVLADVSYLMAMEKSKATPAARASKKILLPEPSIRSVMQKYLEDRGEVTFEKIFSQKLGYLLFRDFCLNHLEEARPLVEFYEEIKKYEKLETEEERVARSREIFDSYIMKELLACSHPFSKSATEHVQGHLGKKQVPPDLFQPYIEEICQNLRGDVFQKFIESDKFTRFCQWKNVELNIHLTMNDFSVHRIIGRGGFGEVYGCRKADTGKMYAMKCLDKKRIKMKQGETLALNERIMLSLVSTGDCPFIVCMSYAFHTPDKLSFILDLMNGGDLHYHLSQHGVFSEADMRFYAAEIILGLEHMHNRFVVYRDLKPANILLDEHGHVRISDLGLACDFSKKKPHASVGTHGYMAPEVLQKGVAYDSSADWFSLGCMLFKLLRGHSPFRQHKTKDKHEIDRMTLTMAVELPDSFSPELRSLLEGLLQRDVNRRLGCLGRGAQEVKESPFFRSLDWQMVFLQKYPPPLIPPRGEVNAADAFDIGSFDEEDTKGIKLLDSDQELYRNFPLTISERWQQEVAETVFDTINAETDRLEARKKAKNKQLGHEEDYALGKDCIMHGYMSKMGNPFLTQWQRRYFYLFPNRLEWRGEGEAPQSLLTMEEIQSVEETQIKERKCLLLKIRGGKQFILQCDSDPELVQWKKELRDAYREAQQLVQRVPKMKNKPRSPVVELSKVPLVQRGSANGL

[6] = target: Tyrosine-protein kinase JAK2 (Homo sapiens, UniProt O60674); experiment: Selectivity interaction (Kinase panel (Invitrogen)) EUB0000639a JAK2; details: at 200 nM
Sequence of Tyrosine-protein kinase JAK2 (O60674 whole entry): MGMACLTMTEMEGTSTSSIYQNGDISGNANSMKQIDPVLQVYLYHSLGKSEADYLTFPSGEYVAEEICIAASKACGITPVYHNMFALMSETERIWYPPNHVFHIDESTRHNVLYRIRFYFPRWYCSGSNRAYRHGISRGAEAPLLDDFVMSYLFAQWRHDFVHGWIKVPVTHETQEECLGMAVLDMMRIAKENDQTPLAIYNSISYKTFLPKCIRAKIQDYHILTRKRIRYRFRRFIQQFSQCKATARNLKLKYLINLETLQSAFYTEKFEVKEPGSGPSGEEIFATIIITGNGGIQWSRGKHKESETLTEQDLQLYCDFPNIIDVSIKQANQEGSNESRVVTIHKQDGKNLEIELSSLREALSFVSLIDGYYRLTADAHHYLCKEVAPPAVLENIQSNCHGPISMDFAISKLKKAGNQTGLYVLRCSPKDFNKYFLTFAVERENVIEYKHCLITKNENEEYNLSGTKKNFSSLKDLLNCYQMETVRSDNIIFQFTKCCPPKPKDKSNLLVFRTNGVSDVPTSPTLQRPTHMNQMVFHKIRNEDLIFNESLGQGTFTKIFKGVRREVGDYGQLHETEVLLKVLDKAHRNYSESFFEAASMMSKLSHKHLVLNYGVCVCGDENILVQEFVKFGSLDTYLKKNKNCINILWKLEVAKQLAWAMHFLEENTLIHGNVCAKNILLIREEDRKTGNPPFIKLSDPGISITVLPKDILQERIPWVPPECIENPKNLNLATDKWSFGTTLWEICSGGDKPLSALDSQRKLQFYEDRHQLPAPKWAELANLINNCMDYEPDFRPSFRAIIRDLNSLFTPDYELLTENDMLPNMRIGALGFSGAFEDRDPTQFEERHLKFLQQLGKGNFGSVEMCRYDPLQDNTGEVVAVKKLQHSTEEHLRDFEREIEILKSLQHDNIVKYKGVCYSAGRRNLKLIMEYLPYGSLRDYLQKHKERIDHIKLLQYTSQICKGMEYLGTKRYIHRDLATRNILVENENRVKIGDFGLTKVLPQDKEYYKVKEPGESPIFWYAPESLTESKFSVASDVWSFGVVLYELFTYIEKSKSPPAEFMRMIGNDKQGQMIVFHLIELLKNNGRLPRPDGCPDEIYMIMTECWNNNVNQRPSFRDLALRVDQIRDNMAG

[7] = target: T3, NUAK family SNF1-like kinase 2 (Homo sapiens) (UniProt Q9H093); experiment: Selectivity interaction (KinomeScan (DiscoverX)) EUB0000655a NUAK2; details: at 10 µM
T3 sequence (whole entry): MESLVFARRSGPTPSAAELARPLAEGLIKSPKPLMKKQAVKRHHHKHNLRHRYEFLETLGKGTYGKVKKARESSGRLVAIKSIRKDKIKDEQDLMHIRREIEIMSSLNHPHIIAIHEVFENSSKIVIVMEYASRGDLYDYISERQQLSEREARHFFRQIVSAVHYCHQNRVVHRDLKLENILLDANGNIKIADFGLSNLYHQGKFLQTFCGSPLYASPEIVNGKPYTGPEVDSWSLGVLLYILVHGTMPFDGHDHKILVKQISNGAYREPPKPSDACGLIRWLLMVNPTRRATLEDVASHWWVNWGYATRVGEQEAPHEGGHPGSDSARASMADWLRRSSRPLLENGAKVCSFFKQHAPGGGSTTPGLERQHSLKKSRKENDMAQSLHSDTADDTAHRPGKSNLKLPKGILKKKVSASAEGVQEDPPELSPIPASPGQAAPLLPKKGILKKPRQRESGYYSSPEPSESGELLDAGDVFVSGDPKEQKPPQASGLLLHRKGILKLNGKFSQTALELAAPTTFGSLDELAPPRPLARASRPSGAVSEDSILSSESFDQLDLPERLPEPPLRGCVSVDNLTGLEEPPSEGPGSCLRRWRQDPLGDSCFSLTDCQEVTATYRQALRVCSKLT

Sequence of Mitogen-activated protein kinase 1 (P28482 whole entry): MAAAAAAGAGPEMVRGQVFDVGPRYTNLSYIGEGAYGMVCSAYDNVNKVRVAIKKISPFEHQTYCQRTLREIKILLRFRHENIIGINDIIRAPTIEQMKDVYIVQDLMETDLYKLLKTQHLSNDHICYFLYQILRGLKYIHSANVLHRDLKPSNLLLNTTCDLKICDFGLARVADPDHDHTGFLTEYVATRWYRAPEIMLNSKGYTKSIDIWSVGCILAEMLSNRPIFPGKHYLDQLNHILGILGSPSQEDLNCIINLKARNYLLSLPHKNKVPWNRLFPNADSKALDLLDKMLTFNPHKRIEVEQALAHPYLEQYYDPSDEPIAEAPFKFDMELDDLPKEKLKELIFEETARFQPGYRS

Question: How did the % binding [1] turn out when `COc1cc(N(C)c2ccnc3ccc(C(F)(F)F)cc23)cc(OC)c1OC` was run?
Answer: 97%

Question: And the % binding [2]?
Answer: 58%

Question: `COc1cc(Nc2nc(C)cc(-c3cnn4nc(OC)ccc34)n2)cc(C(F)(F)F)c1` was tested. Which % of control [3] did it give?
Answer: 96%

Question: For `CCc1cccc(CC)c1NC(=O)c1nn(C)c2c1CCc1cnc(Nc3ccc(C(=O)NC4CCN(C)CC4)cc3OC(F)(F)F)nc1-2`, which IC50 [4] is on record?
Answer: > 10 µM

Question: Which results are given for `CC[C@@H]1[C@H](F)C(=O)N[C@@H]1COc1nccc2cc(C(N)=O)c(OC)cc12` [ZIMLOVISERTIB]?
Answer: % of inhibition [5]: 0.284%; % of inhibition [6]: 15.4%

Question: Which % of control [7] does the source give for `CN(C)CCOc1ccc(-c2nc(-c3ccncc3)c(-c3ccc4c(c3)CC/C4=N\O)[nH]2)cc1` here?
Answer: 95%
